# Key:
# PRMT5 [1] = target: PRMT5; set-up: method as in PMID 34583982; conditions: RapidFire MS SAH detection; read-out: kiApp; cited from earlier work
# METTL3/METTL14 = conditions: cited from earlier work
# Dar-1 split aptamer = test: Split aptamer SAH assay with TR-FRET readout (AptaFluor), equilibrium binding; set-up: species or system D. aromatica; conditions: for EC50: n = 3, plates read at 3 hr
# PRMT5 [2] = tested on: PRMT5; set-up: method as in PMID 25915199; conditions: read-out: IC50 (published value); cited from earlier work
# nsp14 [3] = target: T1, nsp14 (Severe acute respiratory syndrome coronavirus 2, UniProt P0DTD1)
# [4] = tested on: split Dar-1 riboswitch (Dar1 P1/P2); test: Split aptamer SAH assay with FP readout; type: binding, D. aromatica
# Excerpt: Based on a literature review and preliminary testing, an SAH riboswitch from D. aromatica (Dar-1) was chosen for development of a split aptamer-based assay. […] We tested these configurations with a far red fluor on the shorter P2 element, allowing FP-based detection (Fig. 1A). […] Generally, a shift of at least 100 mP @ ≤ 10 % substrate conversion is desirable for HTS. It is likely that the FP signal is limited by the relatively modest difference in size between the free P2 RNA and the liganded P1–P2 complex. In this regard, attachment of one half of a split DNA aptamer to a silver nanoparticle produced a lactoferrin sensor with a signal greater than 100 mP [32]; to our knowledge, this is the only other example of a split aptamer-based assay with an FP readout. Attempts to use a similar approach by attaching Streptavidin to the P1 oligomer were not successful (data not shown).
# Fig. 1. Split aptamer SAH assay with FP readout. A. SAH dependent assembly of split aptamer (Dar1 P1/P2) causes increase in polarization of a fluor attached to the P2 element. B. SAH titration, showing concentration dependence and stability of signal. C. Comparison of response to SAH, SAM and ATP. D. Standard curve mimicking enzymatic conversion of 200 nM SAM to SAH. E. Titration of PRMT3 in the presence of 500 nM SAM and Histone H4 peptide substrate. […]
# SAH riboswitches = target: SAH riboswitches; set-up: method as in PMID 18374645; conditions: native SAH riboswitch; cited from earlier work
# [5] = tested on: C[S+](CC[C@H](N)C(=O)[O-])C[C@H]1O[C@@H](n2cnc3c(N)ncnc32)[C@H](O)[C@@H]1O; test: purified protein, by the assay type; conditions: other: data not shown
# nsp14 [6] = target: T1, nsp14; conditions: read-out: SAM Km; cited from earlier work
compound,measurement,setting,value
Nc1nc2cc(CC[C@H]3C[C@@H](n4ccc5c(N)ncnc54)[C@H](O)[C@@H]3O)ccc2cc1Br [JNJ64619178],Ki,PRMT5 [1],0.000772 µM
"CNc1cc(N2CCC3(CC2)CN(c2cc(F)c(CN4CCC(C)(C)CC4)cc2F)CC(=O)N3)ncn1 [UZH2, reference compound]",IC50,METTL3/METTL14; read-out: IC50 (published value),0.005 µM
Nc1ncnc2c1ncn2[C@@H]1O[C@H](CO)[C@@H](O)[C@H]1O [adenosine],EC50,Dar-1 split aptamer,108 µM
O=C(NC[C@H](O)CN1CCc2ccccc2C1)c1ccnc(NC2CCC2)c1 [GSK591],IC50,PRMT5 [2],0.022 µM
CC1(C)C(=O)N=C2C1=C(O)C(=O)c1ccccc12 [BVT-948],inhibition of nsp14 enzymatic activity in dose response mode,nsp14 [3],dose-dependent response
"Nc1ncnc2c1ncn2[C@@H]1O[C@H](CSCC[C@H](N)C(=O)O)[C@@H](O)[C@H]1O [SAH, S-adenosylhomocysteine]",selectivity vs. SAM,[4],greater than 200 fold
same,Kd,[4]; split aptamer construct,0.022 µM
same,observed selectivity (SAH vs SAM),Dar-1 split aptamer; highly purified preparation of SAM,more than 1000 fold
same,EC50,Dar-1 split aptamer,0.02 µM
same,Kd,SAH riboswitches,0.02 µM
nsp14 (Severe acute respiratory syndrome coronavirus 2),Km,[5],0.06 µM
O=C1C(Cl)=C(NCCN2CCOCC2)C(=O)c2ncccc21 [NSC-663284],inhibition of nsp14 enzymatic activity in dose response mode,nsp14 [3],dose-dependent response
"C[S+](CC[C@H](N)C(=O)[O-])C[C@H]1O[C@@H](n2cnc3c(N)ncnc32)[C@H](O)[C@@H]1O (stereo partly shown) [SAM, S-adenosylmethionine]",EC50,Dar-1 split aptamer,23 µM
same,affinity fold lower than for SAH,SAH riboswitches,at least 1000 fold
same,Km,"METTL3/METTL14; ssRNA substrate similar to the 28mer, read-out: SAM Km",~0.2 µM
same,Km,nsp14 [6],0.257 µM

# — publication PMC11188199, “Development and validation of a generic methyltransferase enzymatic assay based on an SAH riboswitch” (SLAS discovery : advancing life sciences R & D, 2024)
